This is an account of results in ChEMBL document CHEMBL1201862, “PubChem BioAssay data set” (2004).

Among the test systems are NCI-H460; SK-MEL-5; COLO 205; PC-3; DU-145; SW-620; NCI-H23; KM12; MDA-N; SR; SK-OV-3; M14; SK-MEL-28; SK-MEL-2; MOLT-4; HCT-15; A549; UO-31; HCC 2998.
Holding throughout (test): growth of human tumour cells (NCI), 48 h

Structures are written as SMILES.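 Exposure lasted 48 hours, with cells grown in 96-well plates and compounds tested at five concentrations. At the GI50, growth is halved.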 Activity calls are given as the source filed them. Rule as the data show it: active = GI50 up to about 1.1 µM and inactive = higher.

As for `NC(Cc1ccccc1)c1nn[nH]n1` (configuration not stated), the GI50 in the test with NCI-H460, in the test with SK-MEL-5, in the test with COLO 205, in the test with PC-3, with DU-145 and with SW-620 was > 100 µM (inactive) in each case. Further, the GI50 with NCI-H23, with KM12, in the test on MDA-N, in the test with SR, in the test on SK-OV-3 and with M14 was > 100 µM (inactive) in each case. Besides, the GI50 with SK-MEL-28 is > 100 µM (inactive); in the test with SK-MEL-2, > 100 µM (inactive); in the test on MOLT-4 it was < 0.01 µM (active); with HCT-15 it was more than 100 µM; in the test on A549, > 100 µM (inactive); with UO-31, > 100 µM (inactive).
In the case of `CC(C)CCCC(C)[C@H]1CC[C@H]2[C@@H]3CC[C@H]4C[C@@H](CCC=C(c5cc(Cl)c(O)c(C(=O)OC(C)C)c5)c5cc(Cl)c(O)c(C(=O)OC(C)C)c5)CC[C@]4(C)[C@H]3CC[C@]12C` (some centres not stated), the GI50 in the test with HCC 2998, with SK-MEL-5, in the test with COLO 205, in the test on PC-3, in the test on DU-145 and with SW-620 was > 50 µM (inactive) throughout. Moreover, the GI50 with NCI-H23, in the test with KM12, in the test with MDA-N, in the test with SK-OV-3, in the test with M14 and with SK-MEL-28 was > 50 µM (inactive) each time. For the same compound, the GI50 in the test with SK-MEL-2 was > 50 µM (inactive); in the test on MOLT-4, > 50 µM (inactive); with HCT-15, more than 50 µM; with A549 it was > 50 µM (inactive).
Consider `NS(=O)(=O)c1ccc(C(=O)O)cc1` [CARZENIDE], for which the GI50 in the test with SK-MEL-5, with COLO 205, with PC-3, in the test with DU-145, with SW-620 and in the test on NCI-H23 was > 100 µM (inactive) throughout. The GI50 with KM12, with MDA-N, in the test with SK-OV-3, in the test on M14, with SK-MEL-28 and with SK-MEL-2 was > 100 µM (inactive) throughout. The GI50 in the test on MOLT-4 is > 100 µM (inactive); with HCT-15, more than 100 µM; with A549 it was > 100 µM (inactive); in the test with UO-31, > 100 µM (inactive).
Take `O=C1CSC(c2ccccc2O)N1c1ccc(-c2ccc(-n3c(-c4ccccc4)nc4ccccc4c3=O)cc2)cc1` (configuration not stated): the GI50 in the test on NCI-H460 was 35.7 µM (inactive); in the test with COLO 205, 21.6 µM (inactive); in the test on PC-3 it was 27.7 µM (inactive); in the test on DU-145 it was 49 µM (inactive); in the test with SW-620 it was 22.8 µM (inactive); with NCI-H23, 43.9 µM (inactive). Moreover, the GI50 in the test with KM12 is 13.9 µM (inactive); in the test with MDA-N, 35.5 µM (inactive); in the test on SR, 54.3 µM (inactive); in the test on SK-OV-3, 64.1 µM (inactive); in the test on M14, 38.5 µM (inactive); in the test on SK-MEL-28 it was 37.9 µM (inactive). In addition, the GI50 with MOLT-4 is 25.4 µM (inactive); in the test on HCT-15, 33.7 µM; in the test on A549, 21.3 µM (inactive); in the test on UO-31 it was 20.7 µM (inactive).
Turning to `CC(Nc1cc(Cl)cc(Cl)c1)c1ccncc1` (configuration not stated), the GI50 in the test on NCI-H460 was 16.9 µM (inactive); in the test on HCC 2998, 16.8 µM (inactive); in the test with SK-MEL-5 it was 15.4 µM (inactive); in the test with COLO 205 it was 15.6 µM (inactive); in the test on PC-3, 12.1 µM (inactive); with DU-145 it was > 10 µM (inactive). For the same compound, the GI50 was 17.4 µM (inactive) with SW-620; 23.9 µM (inactive) with NCI-H23; 21.3 µM (inactive) with MDA-N; 17.6 µM (inactive) in the test with M14; 30.6 µM (inactive) in the test on SK-MEL-28; > 10 µM (inactive) in the test with SK-MEL-2. In addition, the GI50 was 13.9 µM (inactive) with MOLT-4, 29.1 µM in the test with HCT-15, 27.8 µM (inactive) in the test with A549 and 13.3 µM (inactive) in the test with UO-31.
In the case of `CCn1nc(C)c2c1C(=O)NC(C)C(=O)N2` (configuration not stated), the GI50 in the test on NCI-H460, with SK-MEL-5, with COLO 205, in the test on PC-3, in the test with DU-145 and with SW-620 was > 100 µM (inactive) in each case. The GI50 is > 100 µM (inactive) with NCI-H23; > 10 µM (inactive) in the test on KM12; > 100 µM (inactive) with MDA-N; > 100 µM (inactive) in the test with SK-OV-3; > 100 µM (inactive) in the test on M14; > 100 µM (inactive) with SK-MEL-28. For the same compound, the figures for the GI50 with HCT-15, with A549 and with UO-31 were 15.1 µM, > 100 µM (inactive) and > 100 µM (inactive), respectively.
Take `C[N+]1(C)[C@@H]2CC[C@H]1C[C@@H](OC(=O)C(CO)c1ccccc1)C2` (some centres not stated) [ATROPINE METHYLBROMIDE]: the GI50 in the test on SK-MEL-5, in the test on COLO 205, with PC-3, with DU-145, in the test on SW-620 and with NCI-H23 was > 100 µM (inactive) each time. The GI50 in the test with KM12, with MDA-N, with SR, in the test with SK-OV-3, with M14 and with SK-MEL-28 was > 100 µM (inactive) each time. Besides, the GI50 in the test on SK-MEL-2 is > 100 µM (inactive); in the test with MOLT-4, > 100 µM (inactive); with HCT-15, more than 100 µM; in the test on A549, > 100 µM (inactive); in the test with UO-31, > 100 µM (inactive).
On to `Cn1c(-c2ccccc2)c2cc3nc4ccccc4nc3cc2c1-c1ccccc1`, for which the GI50 in the test on NCI-H460 is 4.19 µM (inactive); in the test on SK-MEL-5, 1.67 µM (inactive); with COLO 205, 2.26 µM (inactive); with PC-3, 14.7 µM (inactive); with DU-145, 30.3 µM (inactive); in the test on SW-620 it was 15.8 µM (inactive). Further, the GI50 with NCI-H23 is 7.14 µM (inactive); with KM12, 11.6 µM (inactive); with MDA-N, 5.87 µM (inactive); with SR it was 4.56 µM (inactive); with SK-OV-3, 21.6 µM (inactive); with M14 it was 6.21 µM (inactive). Also, the GI50 is 34.9 µM (inactive) in the test on SK-MEL-28; 17.7 µM (inactive) in the test with SK-MEL-2; 21 µM (inactive) in the test on MOLT-4; 4.65 µM in the test on HCT-15; 3.94 µM (inactive) with A549; 22.5 µM (inactive) in the test on UO-31.
Take `O=C(C1OC1c1ccc(Cl)cc1)C12CC3CC(CC(C3)C1)C2` (configuration not stated): the GI50 is 14.9 µM (inactive) in the test on NCI-H460; 19.1 µM (inactive) in the test with HCC 2998; 14.5 µM (inactive) with SK-MEL-5; 19.5 µM (inactive) with COLO 205; 29 µM (inactive) in the test on PC-3; 29.1 µM (inactive) with DU-145. Moreover, the GI50 in the test on SW-620 is 20.3 µM (inactive); in the test with NCI-H23, 14.4 µM (inactive); with KM12, 18.8 µM (inactive); with MDA-N it was 15.2 µM (inactive); in the test on SK-OV-3 it was 31 µM (inactive); in the test on M14 it was 17.8 µM (inactive). The GI50 is 16.5 µM (inactive) in the test on SK-MEL-28; 25.5 µM (inactive) with SK-MEL-2; 20 µM (inactive) in the test on MOLT-4; 20.1 µM in the test with HCT-15; 21.8 µM (inactive) in the test on A549; 20.4 µM (inactive) in the test on UO-31.
Consider `O=C(O)c1c[nH]c2c(Sc3ccccc3)nccc2c1=O`, for which the GI50 in the test with NCI-H460, with SK-MEL-5, with COLO 205, in the test with PC-3, with DU-145 and in the test with SW-620 was > 100 µM (inactive) each time. Moreover, the GI50 in the test on NCI-H23 is > 100 µM (inactive); in the test on KM12, 39.9 µM (inactive); with MDA-N, > 100 µM (inactive); in the test with SK-OV-3, > 100 µM (inactive); in the test with M14, > 100 µM (inactive); in the test with SK-MEL-28 it was > 100 µM (inactive). For the same compound, the GI50 in the test with SK-MEL-2 is > 100 µM (inactive); with MOLT-4 it was > 100 µM (inactive); in the test on HCT-15, more than 100 µM; in the test on A549, > 100 µM (inactive); in the test on UO-31, > 100 µM (inactive).
For the compound `OCCOCCN1CCN(CCCN2c3ccccc3Sc3ccc(C(F)(F)F)cc32)CC1`, the GI50 was 9.95 µM (inactive) in the test on NCI-H460; 2.78 µM (inactive) in the test with HCC 2998; 3.22 µM (inactive) in the test on SK-MEL-5; 1.75 µM (inactive) in the test on COLO 205; 15.6 µM (inactive) with PC-3; 14.2 µM (inactive) in the test on DU-145. The GI50 in the test on SW-620 was 15.5 µM (inactive); in the test with NCI-H23 it was 16.4 µM (inactive); in the test on KM12, 6.7 µM (inactive); with MDA-N it was 13 µM (inactive); in the test with SK-OV-3, 19.5 µM (inactive); with M14, 2.65 µM (inactive). Further, the GI50 in the test on SK-MEL-28 was 3.27 µM (inactive); with SK-MEL-2, 19.4 µM (inactive); with MOLT-4, 13.1 µM (inactive); with HCT-15 it was 21.6 µM; with A549 it was 13.1 µM (inactive); in the test with UO-31 it was 5.74 µM (inactive).
As for `CCCCCCCCNC(=O)C1=C(C)NC(C)=C(C(=O)NCCCCCCCC)C1`, the GI50 was > 100 µM (inactive) in the test with NCI-H460; > 100 µM (inactive) in the test with HCC 2998; > 100 µM (inactive) in the test with SK-MEL-5; > 100 µM (inactive) in the test with COLO 205; 80 µM (inactive) with PC-3; > 100 µM (inactive) with DU-145. Further, the GI50 with SW-620 is > 100 µM (inactive); with NCI-H23, > 100 µM (inactive); in the test on KM12, > 100 µM (inactive); in the test with MDA-N, 89.5 µM (inactive); in the test on SK-OV-3 it was > 100 µM (inactive); in the test on M14 it was > 100 µM (inactive). Moreover, the GI50 in the test with SK-MEL-2 was > 100 µM (inactive); with MOLT-4, > 100 µM (inactive); in the test with HCT-15, more than 100 µM; in the test on A549, > 100 µM (inactive); with UO-31 it was 77.6 µM (inactive).
